Data as given in patent US8119614B2, “Substitution derivatives of N6-benzyladenosine, methods of their preparation, their use for preparation of drugs, cosmetic preparations and growth regulators, pharmaceutical preparations, cosmetic preparations and growth regulators containing these compounds” (Ustav Experimentalni Botaniky Akademie Ved Ceske Republiky, priority 2002, dated 2012).

Legend:
Human lymphocytes = assay: Immunosuppressive activity: concanavalin A induced lymphocyte proliferation, [^3H]-TdR incorporation; assay type: cell-based; settings: 72 hours, read-out: Human lymphocytes ED50
Procedure: Human heparinized peripheral blood was obtained from healthy volunteers by cubital vein punction. The blood was diluted in PBS (1:3) and mononuclear cells were separated by centrifugation in Ficoll-Hypaque density gradient (Pharmacia, 1.077 g/ml) at 2200 rpm for 30 minutes. Following centrifugation, lymphocytes were washed in PBS and resuspended in cell culture medium (RMPI 1640, 2 mM glutamine, 100 U/ml penicillin, 100 μg/ml streptomycin, 10% fetal calf serum and sodium bicarbonate).
The cells were diluted at target density of 1,100,000 cells/ml were added by pipette (180 μl) into 96/well microtiter plates. Four-fold dilutions of the intended test concentration were added at time zero in 20 μl aliquots to the microtiter plate wells. Usually, test compound was evaluated at six 4-fold dilutions. In routine testing, the highest well concentration was 266.7 μM. All drug concentrations were examined in duplicates. All wells with exception of unstimulated controls were activated with 50 μl of concanavalin A (25 μg/ml). Incubations of cells with test compounds lasted for 72 hours at 37° C., in 5% CO2 atmosphere and 100% humidity. At the end of incubation period, the cells were assayed by using the [^3H]-TdR:
Cell cultures were incubated with 0.5 μCi (20 μl of stock solution 500 μCi/ml) per well for 6 hours at 37° C. and 5% CO2. The automated cell harvester was used to lyse cells in water and adsorb the DNA onto glass-fiber filters in the format of microtiter plate. The DNA incorporated [^3H]-TdR was retained on the filter while unincorporated material passes through. The filters were dried at room temperature overnight, sealed into a sample bag with 10-12 ml of scintillant. The amount of [^3H]-TdR present in each filter (in cpm) was determined by scintillation counting in a Betaplate liquid scintillation counter. The effective dose of immunosuppressant (ED) was calculated using the following equation: ED=(CCPMdrug exposed well/mean CCPMcontrol wells)×100%. The ED50 value, the drug concentration inhibiting proliferation of 50% of lymphocytes, was calculated from the obtained dose response curves.

[1] = tested on: tobacco callus Nicotiana tabacum L. cv. Wisconsin 38; assay: Growth of cytokinin-dependent tobacco callus; assay type: cell-based; settings: for Activity (%) [10^−5 mol · l^−1 BAP = 100%]: callus growth, at concentration with highest activity; for Concentration with highest activity: fresh callus weight after four weeks
glutamate kinase = assay: Field studies: glutamate kinase activity in spring wheat; assay type: in vivo; design: tested at 1 µM (10^-6 M spray solution); settings: 6 days after the application, Control = 100.0
Procedure: Height of plants, leaf area, dry matter, development of vegetation opex—bases of future spike, and number of spikelets were monitored after germination in 14 day intervals, […]. From these primary data, values used in production physiology are derived, as leaf area index LAI, photosynthetic capacity LAD, tillering potential. Experiments with treatment of spring wheat crop (variety Sandra) are carried out on the field (area 10 m^2, four replicates) by spraying 1 litr of 10^−6 molar solution of tested compound (cytokinin) at the transition period from jointing stage to athesis stage (49 DC).
Glutamate kinase activity was determined 6 days after the application. This enzyme was selected because of good corelation of its activity changes and state of transport of endogenous substances (nutrients from roots, assimilates to cariopsis), respiration, energy (adenosintriphosphate) transfer, storage of nutrients, growth and developmental proceses, and also metabolism of proline, which is known from literature to play an important role in adaptation against stress (unsuitable stand, drought, hypersalinity, coldness) and also in regulation of both theoretical and real production (restriction of seed number reduction per spikelet). Enzyme glutamate kinase catalyses to glutamate conversion into γ glutamylphosphate, which is first step of proline biosynthesis from glutamate. Therefore, this enzyme is, as essential precursor of other plant metabolic pathways, marker of stress inhibition. It can be determined spectrofotometrically (Vasáková, 1980). For analysis, acetone powder is prepared from a sample by standard method, subsequently extracted by 0.05M potassium-phosphate buffer pH=7.2 and centrifugated. Glutamate kinase fraction is precipitated using crystalline ammonium sulfate and after dialysis, glutamate kinase activity is determined spectrophotometrically. Proline accumulation increased by stress corresponds as a “feedback” to glutamate kinase inhibition.

SMILES	EC50 (Human lymphocytes)	Activity (%) [10^−5 mol · l^−1 BAP = 100%] [1]	Concentration with highest activity [1]	GK % (glutamate kinase activity) (glutamate kinase)
OC[C@H]1O[C@@H](n2cnc3c(NCc4ccccc4Cl)ncnc32)[C@H](O)[C@@H]1O [2-chlorobenzylamino, 6-(2-chlorobenzylamino)purine riboside]	8.4 µM	93 ± 4%	10^−6 mol · l^−1	
OC[C@H]1O[C@@H](n2cnc3c(NCc4ccccc4F)ncnc32)[C@H](O)[C@@H]1O [2-fluorobenzylamino, 6-(2-fluorobenzylamino)purine riboside]	5.6 µM	100 ± 9%	10^−6 mol · l^−1	
COc1cccc(CNc2ncnc3c2ncn3[C@@H]2O[C@H](CO)[C@@H](O)[C@H]2O)c1O [2-hydroxy-3-methoxybenzylamino, 6-(2-hydroxy-3-methoxybenzylamino)purine riboside]	1.4 µM			
COc1ccccc1CNc1ncnc2c1ncn2[C@@H]1O[C@H](CO)[C@@H](O)[C@H]1O [2-methoxybenzylamino, 6-(2-methoxybenzylamino)purine riboside]		108 ± 1%	10^−5 mol · l^−1	
Cc1ccccc1CNc1ncnc2c1ncn2[C@@H]1O[C@H](CO)[C@@H](O)[C@H]1O [2-methylbenzylamino, 6-(2-methylbenzylamino)purine riboside]	5.8 µM	98 ± 4%	10^−6 mol · l^−1	
OC[C@H]1O[C@@H](n2cnc3c(NCc4ccc(Cl)c(Cl)c4)ncnc32)[C@H](O)[C@@H]1O [3,4-dichlorobenzylamino, 6-(3,4-dichlorobenzylamino)purine riboside]				114.2%
OC[C@H]1O[C@@H](n2cnc3c(NCc4cccc(Br)c4)ncnc32)[C@H](O)[C@@H]1O [3-bromobenzylamino, 6-(3-bromobenzylamino)purine riboside]		82 ± 11%	10^−6 mol · l^−1	116.6%
OC[C@H]1O[C@@H](n2cnc3c(NCc4cccc(Cl)c4)ncnc32)[C@H](O)[C@@H]1O [3-chlorobenzylamino, 6-(3-chlorobenzylamino)purine riboside]	2.5 µM	96 ± 5%	10^−5 mol · l^−1	124.7%
OC[C@H]1O[C@@H](n2cnc3c(NCc4cccc(F)c4)ncnc32)[C@H](O)[C@@H]1O [3-fluorobenzylamino, 6-(3-fluorobenzylamino)purine riboside]	7.1 µM	91 ± 6%	10^−5 mol · l^−1	
COc1cccc(CNc2ncnc3c2ncn3[C@@H]2O[C@H](CO)[C@@H](O)[C@H]2O)c1 [3-methoxybenzylamino, 6-(3-methoxybenzylamino)purine riboside]		92 ± 1%	10^−6 mol · l^−1	
Cc1cccc(CNc2ncnc3c2ncn3[C@@H]2O[C@H](CO)[C@@H](O)[C@H]2O)c1 [3-methylbenzylamino, 6-(3-methylbenzylamino)purine riboside]	6.5 µM	90 ± 2%	10^−6 mol · l^−1	
OC[C@H]1O[C@@H](n2cnc3c(NCc4ccc(Cl)cc4)ncnc32)[C@H](O)[C@@H]1O [4-chlorobenzylamino, 6-(4-chlorobenzylamino)purine riboside]	3.9 µM	46 ± 14%	10^−6 mol · l^−1	
OC[C@H]1O[C@@H](n2cnc3c(NCc4ccc(F)cc4)ncnc32)[C@H](O)[C@@H]1O [4-fluorobenzylamino, 6-(4-fluorobenzylamino)purine riboside]	9.4 µM	100 ± 6%	10^−6 mol · l^−1	
